Cc1ccc(-c2cc(C(F)(F)F)nn2-c2ccc(S(N)(=O)=O)cc2)cc1
solubility (mole fraction)
Conditions	293.2 K	298.2 K	303.2 K	308.2 K	313.2 K
in NMP	0.0593	0.0672	0.0776	0.0799	0.0917
in isopropanol	0.00851	0.00902	0.0156	0.0198	0.0233

Reference: BigSolDB 2.1
